Experimental data reported in the CheMixHub viscosity set.
± gives the uncertainty stated by the source.

Assay: xn = mol fraction of the nth substance listed

CCCC(=O)OC + CCCCCCCC
101.33 kPa
Conditions | viscosity [mPa·s]
293.15 K, x1 = 0.0893 | 0.53 ± 0.004
293.15 K, x1 = 0.137 | 0.525 ± 0.004
293.15 K, x1 = 0.2169 | 0.519 ± 0.004
293.15 K, x1 = 0.3101 | 0.514 ± 0.004
293.15 K, x1 = 0.3906 | 0.514 ± 0.004
293.15 K, x1 = 0.5062 | 0.516 ± 0.004
293.15 K, x1 = 0.6094 | 0.522 ± 0.004
293.15 K, x1 = 0.6977 | 0.529 ± 0.004
293.15 K, x1 = 0.795 | 0.54 ± 0.004
293.15 K, x1 = 0.8572 | 0.55 ± 0.004
293.15 K, x1 = 0.9222 | 0.562 ± 0.004
303.15 K, x1 = 0.1392 | 0.468 ± 0.004
303.15 K, x1 = 0.2271 | 0.462 ± 0.004
303.15 K, x1 = 0.315 | 0.459 ± 0.004
303.15 K, x1 = 0.4073 | 0.458 ± 0.004
303.15 K, x1 = 0.5146 | 0.459 ± 0.004
303.15 K, x1 = 0.607 | 0.464 ± 0.004
303.15 K, x1 = 0.6957 | 0.47 ± 0.004
303.15 K, x1 = 0.7994 | 0.48 ± 0.004
303.15 K, x1 = 0.8631 | 0.488 ± 0.004
303.15 K, x1 = 0.9198 | 0.497 ± 0.004
313.15 K, x1 = 0.07444 | 0.425 ± 0.003
313.15 K, x1 = 0.1338 | 0.42 ± 0.003
313.15 K, x1 = 0.2249 | 0.416 ± 0.003
313.15 K, x1 = 0.3123 | 0.413 ± 0.003
313.15 K, x1 = 0.3936 | 0.411 ± 0.003
313.15 K, x1 = 0.4968 | 0.413 ± 0.003
313.15 K, x1 = 0.6049 | 0.417 ± 0.003
313.15 K, x1 = 0.6981 | 0.423 ± 0.003
313.15 K, x1 = 0.8007 | 0.432 ± 0.003
313.15 K, x1 = 0.866 | 0.439 ± 0.003
313.15 K, x1 = 0.9319 | 0.448 ± 0.004

CC(C)C=O + CCCCO
100 kPa
Conditions | viscosity [mPa·s]
294.4 K, x1 = 0.76 | 8.02 ± 0.11
296.4 K, x1 = 0.6 | 13.17 ± 0.18
296.9 K, x1 = 0.9 | 5.36 ± 0.08
314.5 K, x1 = 0.6 | 8.56 ± 0.12

Nc1ccccc1 + Cc1cccc(C)c1
303 K, 101.33 kPa
Conditions | viscosity [mPa·s]
x1 = 0.1 | 0.815 ± 0.084
x1 = 0.2 | 1.025 ± 0.11
x1 = 0.3 | 1.316 ± 0.14
x1 = 0.4 | 1.708 ± 0.18
x1 = 0.5 | 2.076 ± 0.22
x1 = 0.6 | 2.225 ± 0.23
x1 = 0.7 | 2.432 ± 0.25
x1 = 0.8 | 2.675 ± 0.28
x1 = 0.9 | 2.875 ± 0.3

COCCOCCOCCOC + COC(=O)OC
298.15 K, 101.33 kPa
Conditions | viscosity [mPa·s]
x1 = 0.0029 | 0.592 ± 0.006
x1 = 0.0133 | 0.606 ± 0.006
x1 = 0.0209 | 0.618 ± 0.006
x1 = 0.0436 | 0.651 ± 0.006
x1 = 0.0642 | 0.679 ± 0.007
x1 = 0.0947 | 0.721 ± 0.007
x1 = 0.1187 | 0.753 ± 0.007
x1 = 0.1459 | 0.792 ± 0.007
x1 = 0.1856 | 0.846 ± 0.008
x1 = 0.2147 | 0.888 ± 0.008
x1 = 0.2593 | 0.953 ± 0.008
x1 = 0.3084 | 1.026 ± 0.009
x1 = 0.3099 | 1.025 ± 0.009
x1 = 0.3614 | 1.099 ± 0.009
x1 = 0.4011 | 1.157 ± 0.01
x1 = 0.4433 | 1.221 ± 0.01
x1 = 0.5005 | 1.303 ± 0.011
x1 = 0.5659 | 1.396 ± 0.011
x1 = 0.6004 | 1.449 ± 0.012
x1 = 0.6515 | 1.524 ± 0.012
x1 = 0.6923 | 1.585 ± 0.013
x1 = 0.7622 | 1.673 ± 0.013
x1 = 0.815 | 1.74 ± 0.014
x1 = 0.8324 | 1.76 ± 0.014
x1 = 0.9158 | 1.86 ± 0.014
x1 = 0.9541 | 1.899 ± 0.015

CNC + CS(C)=O
303.15 K, 101 kPa
Conditions | viscosity [mPa·s]
x2 = 0.061 | 2.067 ± 0.05
x2 = 0.1207 | 2.133 ± 0.049
x2 = 0.2361 | 2.207 ± 0.045
x2 = 0.4518 | 2.373 ± 0.038
x2 = 0.6496 | 2.207 ± 0.026
x2 = 0.8318 | 1.939 ± 0.017

Nc1ccccc1 + CC(C)CO
303 K, 101.33 kPa
Conditions | viscosity [mPa·s]
x1 = 0.1 | 2.305 ± 0.24
x1 = 0.2 | 2.138 ± 0.22
x1 = 0.3 | 2.096 ± 0.22
x1 = 0.4 | 2.047 ± 0.21
x1 = 0.5 | 2.073 ± 0.21
x1 = 0.6 | 2.172 ± 0.23
x1 = 0.7 | 2.284 ± 0.24
x1 = 0.8 | 2.366 ± 0.24
x1 = 0.9 | 2.715 ± 0.28

CC(C)(C)O + CN1CCCC1=O
298.15 K, 101 kPa
Conditions | viscosity [mPa·s]
x2 = 0.0522 | 4.027 ± 0.042
x2 = 0.1107 | 3.478 ± 0.036
x2 = 0.2046 | 2.892 ± 0.029
x2 = 0.2528 | 2.676 ± 0.027
x2 = 0.3034 | 2.494 ± 0.025
x2 = 0.3557 | 2.342 ± 0.023
x2 = 0.4023 | 2.234 ± 0.022
x2 = 0.4562 | 2.13 ± 0.021
x2 = 0.4773 | 2.095 ± 0.021
x2 = 0.4998 | 2.064 ± 0.02
x2 = 0.5605 | 1.981 ± 0.019
x2 = 0.5966 | 1.942 ± 0.019
x2 = 0.6533 | 1.885 ± 0.018
x2 = 0.7046 | 1.842 ± 0.018
x2 = 0.7461 | 1.809 ± 0.018
x2 = 0.8029 | 1.775 ± 0.017
x2 = 0.8498 | 1.745 ± 0.017
x2 = 0.9007 | 1.719 ± 0.017
x2 = 0.9581 | 1.688 ± 0.017

Nc1ccccc1 + Cc1ccccc1
viscosity [mPa·s], 101 kPa
Conditions | 298.15 K | 303.15 K | 308.15 K | 313.15 K
x1 = 0.0977 | 0.62 ± 0.011 | 0.576 ± 0.01 | 0.545 ± 0.01 | 0.495 ± 0.009
x1 = 0.1155 | – | – | 0.5602 ± 0.023 | –
x1 = 0.116 | 0.5955 ± 0.0056 | – | – | –
x1 = 0.198 | 0.701 ± 0.012 | 0.653 ± 0.012 | 0.615 ± 0.011 | 0.57 ± 0.01
x1 = 0.2272 | 0.681 ± 0.0063 | – | – | –
x1 = 0.2298 | – | – | 0.7052 ± 0.029 | –
x1 = 0.3004 | 0.814 ± 0.014 | 0.752 ± 0.013 | 0.72 ± 0.013 | 0.65 ± 0.012
x1 = 0.3224 | – | – | 0.7335 ± 0.03 | –
x1 = 0.3354 | 0.8149 ± 0.0074 | – | – | –
x1 = 0.3917 | 0.94 ± 0.016 | 0.867 ± 0.015 | 0.803 ± 0.014 | 0.74 ± 0.013
x1 = 0.4199 | – | – | 0.8736 ± 0.036 | –
x1 = 0.4399 | 0.9747 ± 0.0088 | – | – | –
x1 = 0.4993 | 1.146 ± 0.019 | 1.074 ± 0.018 | 0.954 ± 0.016 | 0.872 ± 0.015
x1 = 0.5404 | 1.169 ± 0.01 | – | – | –
x1 = 0.5446 | – | – | 1.039 ± 0.042 | –
x1 = 0.6003 | 1.406 ± 0.023 | 1.253 ± 0.02 | 1.139 ± 0.019 | 1.03 ± 0.017
x1 = 0.6191 | – | – | 1.19 ± 0.049 | –
x1 = 0.6382 | 1.427 ± 0.013 | – | – | –
x1 = 0.69 | – | – | 1.391 ± 0.057 | –
x1 = 0.6978 | 1.723 ± 0.027 | 1.522 ± 0.024 | 1.367 ± 0.022 | 1.216 ± 0.02
x1 = 0.7815 | – | – | 1.647 ± 0.067 | –
x1 = 0.8009 | 2.199 ± 0.034 | 1.907 ± 0.03 | 1.696 ± 0.027 | 1.486 ± 0.024
x1 = 0.835 | – | – | 1.891 ± 0.077 | –
x1 = 0.8998 | 2.822 ± 0.043 | 2.423 ± 0.038 | 2.122 ± 0.033 | 1.863 ± 0.029
